Data set [1] can be described thus: Pharmacokinetics after intraperitoneal administration in female SCID mice (plasma, LC-MS/MS, non compartmental analysis). Type of data set: in vivo. Particulars: 20 mg/kg IP; for CL: CL calculated as dose/AUC; for Percentage of extrapolated AUC from T6 h to infinity / T1/2α / T1/2β / half-lives in the second phase (6 h→24 h) compared with FK866 / Cmax / Tmax / AUC(0-inf) / AUC(0-t): plasma; for Percentage of extrapolated AUC from T6 h to infinity: relative to AUC0-inf; for T1/2α: t½α (0 -> 6 h); for T1/2β: t½β (6 -> 24 h); for half-lives in the second phase (6 h→24 h) compared with FK866: versus FK866; for Cmax / Tmax / AUC(0-inf) / AUC(0-t): mouse; for AUC(0-inf): log-trapezoidal rule, extrapolated to infinity; for AUC(0-t): read-out: AUC0-8 h. The protocol: The pharmacokinetics parameters of FK866, FE1199, VAL22-2 and MPM07 were determined following intraperitoneal administration (IP) in female SCID mice.
• SCID (Severe Combined ImmunoDeficiency) mice female total 144 • 25 mM in DMSO (dimethylsulfoxyde) of each test drug • Saline solution (0.9%)
Test drugs were dissolved in saline solution at 20 mg/ml. All dosing solutions were controlled by HPLC (High-Performance Liquid Chromatography) analysis. Mouse weight is estimated around 20 g.
Three mice per time point were used in each group.
Blood samples were collected on citrate at 10 min, 30 min, 1 h, 2 h, 4 h, 6 h, 8 h and 24 hours after drug administration. Following centrifugation, resulting plasma was stored at […] pending bioanalysis. Samples were analyzed by LC-MS/MS (Liquid chromatography tandem-mass spectrometry); the lower limit of quantification achieved was between 3 and 12 nM depending on drug. Non compartmental pharmacokinetic analysis was performed on plasma concentration data.

Data set [2] relates to pancreatic ductal adenocarcinoma (Panc-1). Nature of the data set: Anti-tumor activity on Panc-1: cell viability by sulforhodamine or MTT assay. The settings on record: Homo sapiens, Panc-1 cells, 96 hours treatment, 0.001-1000 nM. Type of data set: cell-based. The protocol:
The compounds according to the present invention were evaluated for their anti-tumor activities on pancreatic ductal adenocarcinoma (Panc-1). To this end, 0.5×10^6 human malignant cells were treated with various concentrations (0.001-1000 nM) for 96 hours of FK866 or the compounds according to the present invention. Subsequently cell viability was determined using either sulforhodamine assays as described in Caffa I, et al. (Oncotarget. 2015 May 20; 6(14):11820-32) or MTT assays. Sulforhodamine B is a dye able that binds to cellular proteins. […] For MTT assays, human malignant cells were plated in triplicate on 96-well plates and treated as mentioned above. After 96 hours of incubation, 15 μL of dye solution was added to each well and cells were incubated for an additional 4 hours. Stop solution (100 μL/well) was added for 1 hour and the absorbance was read at 570 nm on a spectrophotometer. To confirm whether the cytotoxicity exerted by these compounds involves programmed cell death, drug-induced cell death was evaluated using annexin V and 7AAD double staining as described by the manufacturer for assessing apoptosis or autophagic-cell death using a Beckman Coulter Cytomics Gallios flow cytometer. Dead cells were identified as annexinV+ and/or 7AAD+. GraphPad Prism version 7.00 (GraphPad Software, San Diego, Calif.) was used for IC50 calculation.

As to `N#C/N=C(\NC/C=C/CCC1CCN(C(=O)c2ccco2)CC1)Nc1ccncc1` [FEI-199, (E)-2-Cyano-1-((E)-5-(1-(furan-2-carbonyl)piperidin-4-yl)pent-2-en-1-yl)-3-(pyridin-4-yl)guanidine], in data set [1], the CL is recorded as 38.3 mL/h, the “Percentage of extrapolated AUC from T6 h to infinity” value (from here on “Percentage of extrapolated AUC”) is reported as 0.5%, the T1/2α stood at 18.6 min and the T1/2β was determined as 606.6 min. In data set [1], the “half-lives in the second phase (6 h→24 h) compared with FK866” value was “improved and longer half-lives”; the Cmax was 12100 ng/mL; the Tmax turned out to be 10 min; the area under the curve AUC(0-inf) was 5230 ng·h/mL. In data set [1], the AUC(0-t) stood at 5200 ng·h/mL. The same compound had an IC50 in data set [2] of 2.6 nM.

In the case of `O=C(/C=C/c1cccnc1)NCCCCC1CCN(C(=O)c2ccccc2)CC1` [FK866, (E)-N-[4-(1-benzoylpiperidin-4-yl)butyl]-3-(pyridin-3-yl)acrylamide, reference compound], in data set [1], the CL is recorded as 9.6 mL/h, the “Percentage of extrapolated AUC” value is recorded as 1.2%, the T1/2α was determined as 27.6 min and the T1/2β is 229 min. For the same compound, in data set [1], the Cmax was 28100 ng/mL, the Tmax was determined as 10 min, the AUC(0-inf) is 20800 ng·h/mL and the AUC(0-t) is 20700 ng·h/mL. In data set [2], this compound had an IC50 of 18.4 nM.

Consider `O=C(/C=C/c1cccnc1F)NCCCCC1CCN(C(=O)c2cccs2)CC1` [MPM-07], for which, in data set [1], the CL is reported as 38.5 mL/h, the “Percentage of extrapolated AUC” value is reported as 2.0%, the T1/2α was 21.6 min and the T1/2β amounted to 1535 min. Moreover, in data set [1], the “half-lives in the second phase (6 h→24 h) compared with FK866” value is “improved and longer half-lives”; the Cmax was 13200 ng/mL; the time of peak concentration (Tmax) was determined as 10 min; the AUC(0-inf) is 5200 ng·h/mL. Besides, in data set [1], the AUC(0-t) turned out to be 5110 ng·h/mL. The half-maximal inhibitory concentration (IC50) in data set [2] came to 1.5 nM.

The values are drawn from US10894785B2, “Piperidine derivatives for use in the treatment of pancreatic cancer” (CENTRE HOSPITALIER UNIVERSITAIRE VAUDOIS CHUV, priority 2016, dated 2021).
